From article PMC5349447, “Applying a high-throughput fluorescence polarization assay for the discovery of chemical probes blocking La:RNA interactions in vitro and in cells” (PLoS ONE, 2017)
“Also recorded” adds a separate entry of the source.

Tests used:
[1] = tested on: T1, La-WT:fD1-RNA complex; assay: EMSA, compound competition, La-WT:fD1; assay type: binding, human; conditions: La-WT 60 nM, fD1 50 nM
T1 construct: His; made in house; host or cells: E. coli BL21
Protocol: 12% native TBE polyacrylamide gels were prepared in a Mini-PROTEAN Tetra Handcast System (BioRad). The gel was pre-run for 30 min at 140 V in 1x TBE buffer (45 mM Tris/HCl pH 8.5, 45 mM boric acid, 1 mM EDTA). To prepare the RNA-mix, fluorescence labeled RNA oligoribonucleotides (oligos) were diluted in fluorescence polarization buffer (20 mM Tris/HCl (pH 7.4), 150 mM NaCl, 3.0 mM MgCl2, 0.5 mM EDTA, 0.05% (v/v) IGEPAL), mixed for 10 min at 80°C, and then immediately placed on ice for at least 5 min. All RNA oligos were used at a final concentration of 50 nM. Recombinant La protein was diluted in D-buffer (20 mM Tris/ HCl (pH 7.4), 150mM NaCl, 3mM MgCl2, 0.5mM EDTA, 5% glycerol) and placed on ice until use.
La titration was performed at final concentrations of 20, 40, 60, 100, 200, 300, 400, 500, 600 nM La. Three different La concentrations were used for compound studies: 60 nM for fD1 RNA, 200 nM for fPolyU RNA, and 150 nM for TOPf RNA studies. Two μl of diluted compound (diluted in 100% DMSO) or 2 μl 100% DMSO (control reaction) was combined with 8 μl La-mix in a 96-well plate. 10 μl RNA-mix was added, mixed for 2 min, and incubated for 10 min at RT in the dark. Final concentrations in the reaction: 18 mM Tris/HCl (pH 7.4), 135 mM NaCl, 2.7 mM MgCl2, 0.45 mM EDTA, 0.025% (v/v) IGEPAL, 2% glycerol, 10% DMSO). Samples were loaded onto the pre-run gel without any loading buffer. Gels were run at 160 V for 40 min in the dark. The gels were carefully transferred to a clear plastic wrap and scanned using a Typhoon FLA900 imager. The La-RNA complex (La-RNP) formation was quantified using the ImageQuant TL software.
Next we used our established EMSA to test whether compound C2 and C6 can compete against the three RNA oligos: fD1, fPolyU, and TOPf. All of the EMSA reactions were loaded in the following order: lane 1 contains the RNA oligo alone; lane 2 contains the RNA oligo plus La protein at concentration that shifts 50% of the RNA oligo (positive control); lanes 3–9 contain the RNA oligo, La protein and decreasing concentrations of the compound; and lane 10 contains the RNA oligo and the highest compound concentration (negative control).

[2] = tested on: SCC 22B cells; assay: Cell toxicity, CyQUANT cell number, SCC 22B; assay type: cell-based, human; conditions: for effect on SCC 22B cell numbers: 12.5-150 μM
Protocol: (§1) Normal fibroblast MRC5 and human embryonic kidney HEK293 cells were purchased from ATCC. Head and neck squamous cell carcinoma cell lines UM-SCC 22A (SCC 22A) and UM-SCC 22B (SCC 22B) were described elsewhere. MRC5 cells were cultured in EMEM plus 10% FBS; SCC 22A, SCC 22B, and HEK293 cells were cultured in advanced DMEM (Gibco) containing 2 mM L-glutamine (Life Technology) and 10% FBS. All cell lines were tested for mycoplasma contamination by applying a MycoSensor PCR Assay kit according to the manufacturer’s instructions (Agilent Technologies).
(§2) To test for cell toxicity the compounds were dissolved in 100% DMSO to a concentration of 100 mM. Subsequently, compounds were diluted in media to 10 mM (10% DMSO), 1 mM (1% DMSO) and tested at 150, 125, 100, 75, 50, 25 μM in SCC 22B and MRC5 cells. To reach this concentration compounds (stock 1 mM, 1% DMSO) were diluted in the cell culture dish (96-well format, 100 μl final volume) as follows: 150 μM = 6.7 fold (final DMSO: 0.15%); 125 μM = 8.0 fold (final DMSO: 0.125%); 100 μM = 10 fold (final DMSO: 0.1%); 75 μM = 13.3 fold (final DMSO: 0.075%); 50 μM = 20 fold (final DMSO: 0.05%); and 25 μM = 40 fold (final DMSO: 0.025%). As a control the highest DMSO concentration of 0.15% was used. Cells were cultured in appropriate media (see above) for 48h. Subsequently, cells were washed twice with 1x PBS and quantified after staining with fluorescence dye (CyQUANT®, Life Technologies). For this experiments 3x10^4 of MRC5 and 1x10^4 SCC 22B cells were plate the day before the experiment.

[3] = tested on: MRC5 cells; assay: Cell toxicity, CyQUANT cell number, MRC5; assay type: cell-based, human; conditions: 48 h, up to 150 μM
Protocol: as §1, §2

| SMILES | concentration impairing La:fD1 complex formation (EMSA) ([1]; highest concentration tested) | effect on SCC 22B cell numbers ([2]; 48 h) | toxic effect on MRC5 cells (normal fibroblasts) [3] | concentration inhibiting La:fD1 complex formation (EMSA) [1] | competition for La:fD1 interaction (EMSA), in words [1] | tolerance by SCC 22B cells ([2]; 50 μM, 48 hours) | cytotoxic concentration in SCC 22B cells ([2]; 48 h) | selectivity: cancer cell numbers compared to effect on normal MRC5 cells ([2]; SCC 22B versus MRC5, 48 h) |
| --- | --- | --- | --- | --- | --- | --- | --- | --- |
| O=C(O)c1ccccc1C(=O)c1ccc(O)cc1O [C2, 2-(2,4-dihydroxybenzoyl)benzoic acid] | 10 mM | no effect | no toxic effect |  |  |  |  |  |
| CCOC(=O)c1ccc2c(c1)C1C=CCC1C(C(=O)O)N2 (centres unmarked) [C6, 8-(ethoxycarbonyl)-3a,4,5,9b-tetrahydro-3Hcyclopenta[c]quinoline-4-carboxylic acid] |  | reduced SCC 22B cell numbers even at low concentrations | toxic effect | 10 µM |  |  |  |  |
| Cc1ccc(C(=O)c2ccccc2C(=O)O)c(O)c1 [C2.01, 2-(2-hydroxy-4-methylbenzoyl)benzoic acid] |  |  | no toxic effect |  | lower concentration; also recorded: weak competitor | well tolerated | higher than 50 μM | preferentially reduced cancer cell numbers |
